The numbers were not newly measured in the PKSmart pharmacokinetics tables (Seal et al. 2025), which cites them from elsewhere.

The data set can be described thus: Lombardo, Berellini, Obach 2018, Drug Metab Dispos 46:1466, doi 10.1124/dmd.118.082966. Particulars: human; for MRT / Vd / clearance / half-life: in vivo, iv; for fraction unbound: plasma.

On to `COCCCC/C(=N\OCCN)c1ccc(C(F)(F)F)cc1`, for which the MRT was 12.3 h, the Vd is 23.5 L/kg, the clearance is 31.9 mL/min/kg and the half-life is 12.5 h. Further, the free fraction (fraction unbound) is 0.2.
As for `C[C@H]1[C@H](C)CC[C@]2(C(=O)O)CC[C@@]3(C)C(=CC[C@@H]4[C@@]5(C)CC[C@H](O)C(C)(C)[C@@H]5CC[C@]43C)[C@H]12`, the mean residence time (MRT) was 2.34 h, the clearance is 3.87 mL/min/kg and the half-life was 4.8 h.
Consider `Nc1ccn([C@H]2CO[C@@H](CO)S2)c(=O)n1`, for which the MRT is 6.5 h, the Vd was 1.18 L/kg, the clearance is 3 mL/min/kg and the half-life was 19.2 h.
Take `CNCC[C@H](Oc1cccc2ccccc12)c1cccs1`: the clearance was 8.57 mL/min/kg, the half-life is 12 h and the unbound share (fraction unbound) was 0.04.
In the case of `COc1cccc2c1C(=N)c1c(O)c3c(c(O)c1C2=O)C[C@@](O)(C(=O)CO)C[C@@H]3O[C@H]1C[C@H](N)[C@H](O)[C@H](C)O1`, the MRT was 17.2 h, the distribution volume (Vd) was 15.4 L/kg, the clearance was 15 mL/min/kg and the half-life is 13.8 h.
Regarding `c1cc2c(c(N3CCNCC3)c1)OCCO2`, the MRT was 10.5 h, the Vd was 3.6 L/kg, the clearance was 8 mL/min/kg and the half-life was 8.2 h.
In the case of `COc1ccc(CC2c3cc(OC)c(OC)cc3CC[N+]2(C)CCC(=O)OCCCCCOC(=O)CC[N+]2(C)CCc3cc(OC)c(OC)cc3C2Cc2ccc(OC)c(OC)c2)cc1OC` (stereo not given), the mean residence time MRT is 0.29 h, the Vd was 0.1 L/kg, the clearance was 5.7 mL/min/kg and the half-life is 0.31 h. For the same compound, the fraction unbound was 0.52.
Consider `CC[C@H]1OC(=O)C(C)C(=O)C(C)[C@@H](O[C@@H]2O[C@H](C)C[C@H](N(C)C)[C@H]2O)[C@](C)(OC)CC(C)C(=O)C(C)[C@H]2N(CCCCn3cnc(-c4cccnc4)c3)C(=O)O[C@]12C` (stereo not given in full), for which the MRT is 3.6 h, the volume of distribution (Vd) is 3 L/kg, the clearance was 14 mL/min/kg and the half-life was 12 h. Further, the fraction unbound was 0.41.
For the compound `CC[C@H](CC[C@@H](C)[C@H]1CC[C@H]2[C@@H]3CC=C4C[C@@H](O)CC[C@]4(C)[C@H]3CC[C@]12C)C(C)C`, the MRT was 250 h, the Vd is 0.3 L/kg, the clearance was 0.02 mL/min/kg and the half-life was 372 h.
For the compound `CCOC(=O)N[C@@H]1CC[C@@H]2[C@H](CC3C(=O)O[C@H](C)[C@H]3[C@H]2/C=C/c2ccc(-c3cccc(F)c3)cn2)C1` (stereo not given in full), the MRT is 183 h, the Vd is 3.74 L/kg, the clearance was 0.34 mL/min/kg and the half-life is 149 h. In addition, the fraction unbound was 0.01.
Take `COc1cccc2c1C(=O)c1c(O)c3c(c(O)c1C2=O)C[C@@](O)(C(C)=O)C[C@@H]3O[C@H]1C[C@H](N)[C@H](O)[C@H](C)O1`: the MRT is 11.2 h, the Vd was 32 L/kg, the clearance is 47.6 mL/min/kg and the half-life was 14.2 h. In addition, the fraction unbound is 0.06.
Regarding `CN1Cc2c(N)cccc2C(c2ccccc2)C1` (stereo not given), the MRT is 4.5 h, the Vd was 6 L/kg, the clearance was 22 mL/min/kg and the half-life is 6.5 h.
Consider `NC1CCN(c2c(F)cc3c(=O)c(C(=O)O)cn(C4CC4)c3c2Cl)C1` (stereo not given), for which the MRT is 6.7 h, the Vd is 1.9 L/kg, the clearance was 4.7 mL/min/kg and the half-life was 5.4 h.
As for `CN1CCN(CCCN2c3ccccc3Sc3ccc(Cl)cc32)CC1`, the MRT is 23 h, the Vd is 22 L/kg, the clearance is 16 mL/min/kg and the half-life was 9 h.
Turning to `CN[C@H]1CN(c2ccc3c(=O)c(C(=O)O)cn(-c4nccs4)c3n2)C[C@@H]1OC`, the mean residence time (MRT) was 30.6 h, the Vd was 1.46 L/kg, the clearance is 0.79 mL/min/kg and the half-life is 25.5 h.
With `Cc1c(F)cc(C(=O)NC2CC2)cc1-c1ccc(C(=O)NCC(C)(C)C)cn1`, the MRT is 7.38 h, the Vd is 1.67 L/kg and the half-life was 6.95 h.
For `C[C@@H]1C[C@H]2C3C[C@H](F)C4=CC(=O)C=C[C@]4(C)[C@@]3(F)[C@@H](O)C[C@]2(C)[C@@]1(OC(=O)c1ccco1)C(=O)SCF` (stereo not given in full), the Vd is 4.95 L/kg, the clearance is 13.4 mL/min/kg and the half-life was 10.6 h.
On to `CON=C(C(=O)NC1C(=O)N2C(C(=O)[O-])=C(C[n+]3ccc(-c4cnco4)cc3)CS[C@H]12)c1csc(N)n1` (stereo not given in full), for which the MRT is 2.64 h, the Vd was 0.22 L/kg, the clearance is 1.76 mL/min/kg and the half-life was 1.78 h.
For `Nc1nc(N/N=C/C2CCCCC2)nc2c1ncn2[C@@H]1O[C@H](CO)[C@@H](O)[C@H]1O`, the MRT is 0.19 h, the Vd is 0.4 L/kg, the clearance was 35.8 mL/min/kg and the half-life is 0.21 h.
On to `CS(=O)(=O)c1ccc(C(=O)Nc2ccc(Cl)c(-c3ccccn3)c2)c(Cl)c1`, for which the MRT was 341 h, the clearance is 0.01 mL/min/kg and the half-life was 245 h.
For `Cc1cnc(C(=O)NCCc2ccc(S(=O)(=O)NC(=O)NC3CCCCC3)cc2)cn1`, the MRT was 4.8 h.
For `COc1ccc2c(c1OC)C(=O)O[C@@H]2[C@H]1c2c(cc3c(c2OC)OCO3)CCN1C`, the MRT is 2.28 h, the Vd was 2.3 L/kg, the clearance is 16.9 mL/min/kg and the half-life is 2.13 h.
Take `Cn1c(CNc2ccc(C(=N)N)cc2)nc2cc(C(=O)N(CCC(=O)O)c3ccccn3)ccc21`: the MRT is 7.4 h, the Vd is 0.85 L/kg, the clearance is 1.93 mL/min/kg and the half-life is 7.3 h. The fraction unbound is 0.65.

For orientation: MRT means the average time that molecules of a dose stay in the body. In general, Vd refers to a proportionality between amount in the body and measured concentration, not a real space. The clearance is the rate of elimination divided by the concentration. As usually defined, the half-life is the time needed for the level to fall by half in the phase considered. The fraction unbound is free concentration divided by total concentration.
